Earlier results, collected in article PMC8745345, “Hydroxy Pentacyclic Triterpene Acid, Kaempferol, Inhibits the Human 5-Hydroxytryptamine Type 3A Receptor Activity” (International Journal of Molecular Sciences, 2022).

Test system: 5-HT3A
Details: cited from earlier work

## Cc1nccn1CC1CCc2c(c3ccccc3n2C)C1=O (stereo not drawn) [ondansetron]
5-HT3 antagonist potency
  IC50: 4.9 nM
  mode of antagonism: competitive antagonist
Serotonin 100 uM
  efficacy of antagonist against I5-HT(100uM) of 5-HT3A: ~100%
